Assay results as given in patent US20240246967A1, “AXL COMPOUNDS” (ARCUS BIOSCIENCES, INC., priority 2021, published 2024).
pIC50: −log10 of the molar value.

target: T1, Axl (Homo sapiens, UniProt P30530); test: Axl NanoBRET intracellular kinase assay (intracellular binding, Cell Binding); parameters: host or cells: HEK-293; conditions: HEK-293 cells transfected with Axl-NanoLuc fusion vector; 0.35 μM K-5 NanoBRET tracer
T1 sequence (P30530 26-894): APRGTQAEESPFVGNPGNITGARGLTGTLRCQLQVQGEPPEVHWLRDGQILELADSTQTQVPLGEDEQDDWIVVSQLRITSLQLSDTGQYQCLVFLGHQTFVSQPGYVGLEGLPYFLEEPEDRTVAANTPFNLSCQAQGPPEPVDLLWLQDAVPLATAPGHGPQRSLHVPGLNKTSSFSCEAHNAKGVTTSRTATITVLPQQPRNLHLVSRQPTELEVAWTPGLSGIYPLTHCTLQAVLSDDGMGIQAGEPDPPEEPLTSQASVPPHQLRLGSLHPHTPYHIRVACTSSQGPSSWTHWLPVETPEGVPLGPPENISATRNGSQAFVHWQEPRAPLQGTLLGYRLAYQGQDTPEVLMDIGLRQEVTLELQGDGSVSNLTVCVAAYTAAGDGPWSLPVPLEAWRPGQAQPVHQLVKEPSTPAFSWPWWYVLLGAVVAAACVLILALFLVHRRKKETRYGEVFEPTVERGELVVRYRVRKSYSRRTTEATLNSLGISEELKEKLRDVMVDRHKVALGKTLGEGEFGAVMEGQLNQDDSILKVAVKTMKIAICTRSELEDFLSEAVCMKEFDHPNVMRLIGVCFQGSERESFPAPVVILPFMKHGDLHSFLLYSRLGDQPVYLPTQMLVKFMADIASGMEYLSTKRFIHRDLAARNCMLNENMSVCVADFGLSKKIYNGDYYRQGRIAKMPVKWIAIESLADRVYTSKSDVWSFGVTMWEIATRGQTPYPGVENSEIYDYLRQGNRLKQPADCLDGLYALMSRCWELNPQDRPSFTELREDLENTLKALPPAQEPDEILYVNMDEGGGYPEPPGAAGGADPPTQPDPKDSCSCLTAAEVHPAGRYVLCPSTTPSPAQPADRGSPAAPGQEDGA
Summary of the method: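 In intact HEK-293 cells transiently expressing NanoLuc-tagged Axl, compounds compete with the K-5 tracer (0.35 μM, 2 h, 37 °C) after a 1 h preincubation. Readout is the 610/450 nm emission ratio.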

Row | Structure (SMILES) | pIC50
1 | Cc1cc(-c2n[nH]c3ncc(-c4ccc5c(c4)CCC(N4CCCC4)CC5)cc23)ccc1C(=O)N1CCNCC1 (centres unmarked) [Example 47, 1-(2-Methyl-4-{5-[7-(pyrrolidin-1-yl)-6,7,8,9-tetrahydro-5H-benzo[7]annulen-2-yl]-1H-pyrazolo[3,4-b]pyridin-3-yl}benzoyl)piperazine] | > 7.00
2 | Cc1cc(-c2n[nH]c3ncc(-c4ccc5c(c4)CCN(C(=O)C(C)C)CC5)cc23)ccc1C(=O)N1CCNCC1 [Example 48, 2-Methyl-1-(7-{3-[3-methyl-4-(piperazine-1-carbonyl)phenyl]-1H-pyrazolo[3,4-b]pyridin-5-yl}-2,3,4,5-tetrahydro-1H-3-benzazepin-3-yl)propan-1-one] | 6.00 to 7.00
3 | Cc1cc(-c2n[nH]c3ncc(-c4ccc5c(c4)CC[C@@H](N4CCCC4)CC5)cc23)cc(C)c1C(N)=O [Example 49, 2,6-Dimethyl-4-{5-[(7S)-7-(pyrrolidin-1-yl)-6,7,8,9-tetrahydro-5H-benzo[7]annulen-2-yl]-1H-pyrazolo[3,4-b]pyridin-3-yl}benzamide] | > 7.00
4 | Cc1cc(-c2n[nH]c3ncc(-c4ccc5c(c4)CC[C@@H](N4CCCC4)CC5)cc23)cc(Cl)c1C(N)=O [Example 50, 2-Chloro-6-methyl-4-{5-[(7S)-7-(pyrrolidin-1-yl)-6,7,8,9-tetrahydro-5H-benzo[7]annulen-2-yl]-1H-pyrazolo[3,4-b]pyridin-3-yl}benzamide] | > 7.00
5 | C[C@@H]1CCCN1C1(C)CCc2ccc(-c3cnc4[nH]nc(-c5ccc(C(N)=O)c(F)c5)c4c3)cc2CC1 (stereo partly drawn) [Example 52, 2-Fluoro-4-(5-(7-methyl-7-((R)-2-methylpyrrolidin-1-yl)-6,7,8,9-tetrahydro-5H-benzo[7]annulen-2-yl)-1H-pyrazolo[3,4-b]pyridin-3-yl)benzamide] | > 7.00
6 | COc1cc(-c2n[nH]c3ncc(-c4ccc5c(c4)CCC(C)(N4CCC[C@H]4C)CC5)cc23)ccc1C(N)=O (stereo partly drawn) [Example 53, 2-Methoxy-4-(5-(7-methyl-7-((R)-2-methylpyrrolidin-1-yl)-6,7,8,9-tetrahydro-5H-benzo[7]annulen-2-yl)-1H-pyrazolo[3,4-b]pyridin-3-yl)benzamide] | > 7.00
7 | C[C@@H]1CCCN1C1(C)CCc2ccc(-c3cnc4[nH]nc(-c5ccc(C(N)=O)cc5)c4c3)cc2CC1 (stereo partly drawn) [Example 54, 4-(5-(7-Methyl-7-((R)-2-methylpyrrolidin-1-yl)-6,7,8,9-tetrahydro-5H-benzo[7]annulen-2-yl)-1H-pyrazolo[3,4-b]pyridin-3-yl)benzamide] | > 7.00
8 | Cc1cc(-c2n[nH]c3ncc(-c4ccc5c(c4)CC[C@@H](N4CCCC4)CC5)cc23)cc(C)c1C(=O)N1CCNCC1 [Example 55, 1-(2,6-Dimethyl-4-{5-[(7S)-7-(pyrrolidin-1-yl)-6,7,8,9-tetrahydro-5H-benzo[7]annulen-2-yl]-1H-pyrazolo[3,4-b]pyridin-3-yl}benzoyl)piperazine] | > 7.00
9 | Cc1cc(-c2n[nH]c3ncc(-c4ccc5c(c4)CC[C@@H](N4CCCC4)CC5)cc23)cc(Cl)c1C(=O)N1CCNCC1 [Example 56, 1-(2-Chloro-6-methyl-4-{5-[(7S)-7-(pyrrolidin-1-yl)-6,7,8,9-tetrahydro-5H-benzo[7]annulen-2-yl]-1H-pyrazolo[3,4-b]pyridin-3-yl}benzoyl)piperazine] | > 7.00
10 | C[C@@H]1CCCN1C1(C)CCc2ccc(-c3cnc4[nH]nc(-c5ccc(C(C)(C)O)c(Cl)c5)c4c3)cc2CC1 (stereo partly drawn) [Example 57, 2-[2-Chloro-4-(5-{7-methyl-7-[(2R)-2-methylpyrrolidin-1-yl]-6,7,8,9-tetrahydro-5H-benzo[7]annulen-2-yl}-1H-pyrazolo[3,4-b]pyridin-3-yl)phenyl]propan-2-ol] | > 7.00
11 | C[C@H]1CCCN1C1(C)CCc2ccc(-c3cnc4[nH]nc(-c5ccc(C(C)(C)O)c(Cl)c5)c4c3)cc2CC1 (stereo partly drawn) [Example 58, 2-[2-Chloro-4-(5-{7-methyl-7-[(2S)-2-methylpyrrolidin-1-yl]-6,7,8,9-tetrahydro-5H-benzo[7]annulen-2-yl}-1H-pyrazolo[3,4-b]pyridin-3-yl)phenyl]propan-2-ol] | 6.00 to 7.00
12 | CC(C)(O)c1ccc(-c2n[nH]c3ncc(-c4cc5c(cn4)CCC(N4CCCC4)CC5)cc23)cc1Cl (centres unmarked) [Example 59, 2-(2-Chloro-4-{5-[7-(pyrrolidin-1-yl)-5H,6H,7H,8H,9H-cyclohepta[c]pyridin-3-yl]-1H-pyrazolo[3,4-b]pyridin-3-yl}phenyl)propan-2-ol] | > 7.00
13 | CC(C)(O)c1ccc(-c2n[nH]c3ncc(-c4ccc5c(n4)CCC(N4CCCC4)CC5)cc23)cc1Cl (centres unmarked) [Example 60, 2-(2-Chloro-4-{5-[7-(pyrrolidin-1-yl)-5H,6H,7H,8H,9H-cyclohepta[b]pyridin-2-yl]-1H-pyrazolo[3,4-b]pyridin-3-yl}phenyl)propan-2-ol] | < 6.00
14 | CC(C)(O)c1ccc(-c2n[nH]c3ncc(-c4ccc5c(c4)CC4CCC(C5)C4N4CCCC4)cc23)cc1Cl (centres unmarked) [Example 61, 2-(2-Chloro-4-{5-[13-(pyrrolidin-1-yl)tricyclo[8.2.1.0^3,8]trideca-3,5,7-trien-5-yl]-1H-pyrazolo[3,4-b]pyridin-3-yl}phenyl)propan-2-ol] | < 6.00
15 | C[C@@H]1CCCN1C1CCc2ccc(-c3cnc4[nH]nc(-c5ccc(C6(O)CCC6)c(Cl)c5)c4c3)cc2CC1 (stereo partly drawn) [Example 62, 1-[2-Chloro-4-(5-{7-[(2R)-2-methylpyrrolidin-1-yl]-6,7,8,9-tetrahydro-5H-benzo[7]annulen-2-yl}-1H-pyrazolo[3,4-b]pyridin-3-yl)phenyl]cyclobutan-1-ol] | > 7.00
16 | C[C@@H]1CCCN1C1CCc2ccc(-c3cnc4[nH]nc(-c5ccc(S(N)(=O)=O)c(Cl)c5)c4c3)cc2CC1 (stereo partly drawn) [Example 94, 2-Chloro-4-(5-(7-((R)-2-methylpyrrolidin-1-yl)-6,7,8,9-tetrahydro-5H-benzo[7]annulen-2-yl)-1H-pyrazolo[3,4-b]pyridin-3-yl)benzenesulfonamide] | > 7.00
17 | C[C@@H]1CCCN1C1(C)CCc2ccc(-c3cnc4[nH]nc(-c5ccc(S(N)(=O)=O)cc5)c4c3)cc2CC1 (stereo partly drawn) [Example 95, 4-(5-(7-Methyl-7-((R)-2-methylpyrrolidin-1-yl)-6,7,8,9-tetrahydro-5H-benzo[7]annulen-2-yl)-1H-pyrazolo[3,4-b]pyridin-3-yl)benzenesulfonamide] | > 7.00
18 | CC(C)(O)c1ccc(-c2n[nH]c3ncc(-c4ccc5c(c4)CCC4(CCCN4)CC5)cc23)cc1Cl (centres unmarked) [Example 96, 2-[2-Chloro-4-(5-{5,6,8,9-tetrahydrospiro[benzo[7]annulene-7,2′-pyrrolidin]-3-yl}-1H-pyrazolo[3,4-b]pyridin-3-yl)phenyl]propan-2-ol] | < 6.00
19 | C[C@@H]1CCCN1C1CCc2ccc(-c3cnc4[nH]nc(-c5ccc(C(C)(C)O)cn5)c4c3)cc2CC1 (stereo partly drawn) [Example 97, 2-[6-(5-{7-[(2R)-2-Methylpyrrolidin-1-yl]-6,7,8,9-tetrahydro-5H-benzo[7]annulen-2-yl}-1H-pyrazolo[3,4-b]pyridin-3-yl)pyridin-3-yl]propan-2-ol] | < 6.00
20 | C[C@@H]1CCCN1C1(C)CCc2ccc(-c3cnc4[nH]nc(-c5cnc(C(C)(C)O)c(Cl)c5)c4c3)cc2CC1 (stereo partly drawn) [Example 98, 2-[3-Chloro-5-(5-{7-methyl-7-[(2R)-2-methylpyrrolidin-1-yl]-6,7,8,9-tetrahydro-5H-benzo[7]annulen-2-yl}-1H-pyrazolo[3,4-b]pyridin-3-yl)pyridin-2-yl]propan-2-ol] | 6.00 to 7.00
21 | C[C@@H]1CCCN1C1(C)CCc2ccc(-c3cnc4[nH]nc(-c5ccc(C(=O)N[C@@H]6CCOC6)cc5)c4c3)cc2CC1 (stereo partly drawn) [Example 99, 4-(5-{7-Methyl-7-[(2R)-2-methylpyrrolidin-1-yl]-6,7,8,9-tetrahydro-5H-benzo[7]annulen-2-yl}-1H-pyrazolo[3,4-b]pyridin-3-yl)-N-[(3R)-oxolan-3-yl]benzamide] | > 7.00
22 | CCS(=N)(=O)c1ccc(-c2n[nH]c3ncc(-c4ccc5c(c4)CCC(C)(N4CCC[C@H]4C)CC5)cc23)cc1 (stereo partly drawn) [Example 100, Ethyl(imino)[4-(5-{7-methyl-7-[(2R)-2-methylpyrrolidin-1-yl]-6,7,8,9-tetrahydro-5H-benzo[7]annulen-2-yl}-1H-pyrazolo[3,4-b]pyridin-3-yl)phenyl]-λ^6-sulfanone] | 6.00 to 7.00
23 | C[C@@H]1CCCN1[C@@H]1CCc2cc(-c3cnc4[nH]nc(-c5ccc(S(=O)(=O)C6CC6)cc5)c4c3)cnc2CC1 [Example 101, (2R)-1-(3-{3-[4-(Cyclopropanesulfonyl)phenyl]-1H-pyrazolo[3,4-b]pyridin-5-yl}-5H,6H,7H,8H,9H-cyclohepta[b]pyridin-7-yl)-2-methylpyrrolidine] | < 6.00
